Target: T1, S1P5 receptors (Homo sapiens, UniProt Q9H228)
T1 construct: expressed in transfected cells; host or cells: CHO cells (membranes)
Assay: [35S]-GTPγS binding assay on CHO-S1P5 membranes (S1P5 agonism)
Type: biochemical
Conditions: membranes of CHO cells expressing recombinant S1P5; measure of S1P5 agonism
Experimental: CHO cells expressing recombinant S1P5 receptors were cultured in 500 cm^2 culture trays and, once confluent, rinsed and detached with cell-lifting buffer (10 mM HEPES, 154 mM NaCl, 6.85 mM EDTA, pH 7.4). Cells were then pelleted by centrifugation, resuspended, and homogenized in membrane preparation buffer (10 mM HEPES and 10 mM EDTA, pH 7.4) using a Polytron PT 1200E homogenizer (Kinematica, Luzern, Switzerland). Cellular proteins were pelleted by centrifugation at 48,000×g at 4° C. for 30 minutes. The resulting supernatant was discarded, and the pellet was re-suspended again in membrane preparation buffer, homogenized for a second time, and then centrifuged again as described above. The final cellular protein pellet was suspended in ice cold resuspension buffer (10 mM HEPES and 0.1 mM EDTA, pH 7.4), divided into aliquots, and stored at −80° C. until use.
Functional binding assays for [^35S]-GTPγS were performed in 96-well non-binding surface plates with a final volume of 200 μL. The test compounds were serially diluted in DMSO and added to assay plates using a Tecan D300E digital printer with a total volume of 0.4 μL. The control sphingosine-1-phosphate (SIP) was prepared separately by preparing a 400 µM stock solution from a 100 nmol pellet of S1P in 10 mM Na2CO3 with 2% β-cyclodextrin. The serial dilution of S1P was done using complete assay buffer (20 mM HEPES, 10 mM MgCl2, 100 mM NaCl, 1 mM EDTA, 0.1% fatty acid free bovine serum albumin (BSA), and 30 μg/mL saponin, pH 7.4) and transferred to wells already containing 0.4 μL DMSO. All the wells were then loaded to a total volume of 40 μL of complete assay buffer, except the non-specific binding (NSB) wells. For NSB wells, 40 μL/well of 50 μM GTPγS (Sigma Aldrich, cat #G8634, St. Louis, MO) was added to wells containing 0.4 μL of DMSO. The assay was started by the addition of 120 μL/well of CHO-SIP receptor membrane solution containing 40 μg/mL of membrane protein, 16.67 μM guanosine diphosphate (GDP; Sigma Aldrich, cat #G7127, St. Louis, MO), and 2.5 mg/mL of WGA PVT SPA beads in complete buffer. Assay plates were then sealed and incubated at room temperature with gentle agitation for 30 minutes. Next, 40 μL/well of 1 nM of [^35S]-GTPγS (PerkinElmer, cat #NEG030X^250UC, Waltham, MA) in basic assay buffer (20 mM HEPES, 10 mM MgCl2, 100 mM NaCl, and 1 mM EDTA, pH7.4) was added to the assay plates to yield a final concentration of […] and the plates were further incubated for 40 minutes at room temperature with gentle agitation. The assay was terminated by centrifugation of the plates at 1000 rpm for 3 minutes using an Eppendorf 5810R centrifuge (Eppendorf, Hamburg, Germany) and G protein bound radioactivity was quantitated using a MicroBeta2 microplate scintillation counter (PerkinElmer, Waltham, MA). As G protein bound radioactivity directly correlates to receptor activation and coupling to the G protein, this assay is a measure of S1P5 agonism.

T1 sequence (Q9H228 whole entry): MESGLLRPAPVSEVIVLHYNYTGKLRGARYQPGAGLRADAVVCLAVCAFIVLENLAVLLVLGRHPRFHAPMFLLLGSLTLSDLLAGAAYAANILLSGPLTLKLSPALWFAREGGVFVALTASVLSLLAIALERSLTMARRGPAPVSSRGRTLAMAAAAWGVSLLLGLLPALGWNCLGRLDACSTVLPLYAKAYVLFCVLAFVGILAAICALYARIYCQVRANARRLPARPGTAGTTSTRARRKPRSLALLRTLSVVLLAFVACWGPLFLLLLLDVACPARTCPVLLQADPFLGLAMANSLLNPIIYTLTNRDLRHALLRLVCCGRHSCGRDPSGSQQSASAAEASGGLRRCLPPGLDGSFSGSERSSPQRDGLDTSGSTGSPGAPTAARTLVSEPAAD

SMILES	EC50
Cc1c(OCc2c(Cl)cccc2Cl)ccc2c1CCC2NCC(C)(C)O (single isomer, unassigned) [Compound 20a, 1-((5-((2,6-dichlorobenzyl)oxy)-4-methyl-2,3-dihydro-1H-inden-1-yl)amino)-2-methylpropan-2-ol]	10 to 100 nM
CCC1(O)CN(Cc2c(C)cc(C3CN(c4c(Cl)cccc4Cl)C3)cc2C)C1 [Compound 38, 1-(4-(1-(2,6-dichlorophenyl)azetidin-3-yl)-2,6-dimethylbenzyl)-3-ethylazetidin-3-ol]	100 to 1000 nM
CC1(O)CN(C2CCc3cc(OCc4c(Cl)cccc4Cl)ccc32)C1 (single isomer, unassigned) [Compound 3a, 1-(5-((2,6-dichlorobenzyl)oxy)-2,3-dihydro-1H-inden-1-yl)-3-methylazetidin-3-ol]	1 to 10 nM
Cc1cc(-c2ccc(C3CC3)c(Cl)c2)cc2c1C(N1CCC(C)(O)C1)CC2 (stereo not drawn) [Compound 12, 1-(5-(3-chloro-4-cyclopropylphenyl)-7-methyl-2,3-dihydro-1H-inden-1-yl)-3-methylpyrrolidin-3-ol]	100 to 1000 nM
CC1(O)CN(Cc2ccc(C#Cc3cccc(F)c3)cc2)C1 [Compound 29, 1-(4-((3-fluorophenyl)-ethynyl)benzyl)-3-methylazetidin-3-ol]	100 to 1000 nM
CCc1cc(C2CN(c3c(Cl)cccc3Cl)C2)cc(CC)c1CN1CC(C)(O)C1 [Compound 52, 1-(4-(1-(2,6-dichlorophenyl)azetidin-3-yl)-2,6-diethylbenzyl)-3-methylazetidin-3-ol]	100 to 1000 nM
CC1(O)CN(C2CCc3cc(-c4ccc(C5CC5)c(Cl)c4)ccc32)C1 (single isomer, unassigned) [Compound 5a, 1-[5-(3-chloro-4-cyclopropyl-phenyl)indan-1-yl]-3-methyl-azetidin-3-ol]	10 to 100 nM
CC1(O)CN(Cc2ccc(C3CN(c4c(Cl)cccc4Cl)C3)cn2)C1 [Compound 59, 1-((5-(1-(2,6-dichlorophenyl)azetidin-3-yl)pyridin-2-yl)methyl)-3-methylazetidin-3-ol]	100 to 1000 nM
Cc1cc(OCc2c(Cl)cccc2Cl)cc2c1C(N1CC(C)(O)C1)CC2 (single isomer, unassigned) [Compound 15b, 1-[5-[(2,6-dichlorophenyl)methoxy]-7-methyl-indan-1-yl]-3-methyl-azetidin-3-ol]	1 to 10 nM
Cc1cc(C2CN(c3c(Cl)cccc3Cl)C2)cc(F)c1CN1CC(C)(O)C1 [Compound 48, 1-(4-(1-(2,6-dichlorophenyl)azetidin-3-yl)-2-fluoro-6-methylbenzyl)-3-methylazetidin-3-ol]	10 to 100 nM
Cc1c(C#Cc2cccc(F)c2)ccc2c1CCC2N1CC(C)(O)C1 (single isomer, unassigned) [Compound 17b, 1-[5-[2-(3-fluorophenyl)ethynyl]-4-methyl-indan-1-yl]-3-methyl-azetidin-3-ol]	10 to 100 nM
CCc1cc(C2CN(c3c(Cl)cccc3Cl)C2)cc(C)c1CN1CC(C)(O)C1 [Compound 51, 1-(4-(1-(2,6-dichlorophenyl)azetidin-3-yl)-2-ethyl-6-methylbenzyl)-3-methylazetidin-3-ol]	10 to 100 nM
CC1(O)CN(C2CCc3cc(-c4ccc(C5CC5)c(F)c4)ccc32)C1 (single isomer, unassigned) [Compound 4b, 1-(5-(4-cyclopropyl-3-fluorophenyl)-2,3-dihydro-1H-inden-1-yl)-3-methyl azetidin-3-ol]	100 to 1000 nM
Cc1cc2c(c(C)c1-c1ccc(C3CC3)c(Cl)c1)CCC2N1CC(C)(O)C1 (single isomer, unassigned) [Compound 25b, 1-(5-(3-chloro-4-cyclopropylphenyl)-4,6-dimethyl-2,3-dihydro-1H-inden-1-yl)-3-methylazetidin-3-ol]	1 to 10 nM
Cc1cc2c(cc1-c1ccc(C3CC3)c(Cl)c1)CCC2N1CC(C)(O)C1 (single isomer, unassigned) [Compound 21a, 1-[5-(3-chloro-4-cyclopropyl-phenyl)-6-methyl-indan-1-yl]-3-methyl-azetidin-3-ol]	10 to 100 nM
CC1(O)CN(Cc2ccc(C#Cc3c(F)cccc3F)cc2)C1 [Compound 28, 1-(4-((2,6-difluoro-phenyl)ethynyl)benzyl)-3-methylazetidin-3-ol]	100 to 1000 nM
CC1(O)CN(C2CCc3cc(OCc4c(Cl)cccc4Cl)ccc32)C1 (single isomer, unassigned) [Compound 3b, 1-(5-((2,6-dichlorobenzyl)oxy)-2,3-dihydro-1H-inden-1-yl)-3-methylazetidin-3-ol]	10 to 100 nM
Cc1cc(N2CC(c3c(Cl)cccc3Cl)C2)c(C)cc1CN1CC(C)(O)C1 [Compound 62, 1-(4-(3-(2,6-dichlorophenyl)azetidin-1-yl)-2,5-dimethylbenzyl)-3-methylazetidin-3-ol]	1 to 10 nM
CC1(O)CN(Cc2ccc(C3CN(c4c(Cl)cccc4Cl)C3)c(F)c2)C1 [Compound 60, 1-(4-(1-(2,6-dichlorophenyl)azetidin-3-yl)-3-fluorobenzyl)-3-methylazetidin-3-ol]	100 to 1000 nM
Cc1cc(CCc2c(Cl)cccc2Cl)cc2c1C(N1CC(C)(O)C1)CC2 (single isomer, unassigned) [Compound 14a, 1-[5-[2-(2,6-dichlorophenyl)ethyl]-7-methyl-indan-1-yl]-3-methyl-azetidin-3-ol]	1 to 10 nM
Cc1cc(N2CC(c3c(Cl)cccc3Cl)C2)cc(C)c1CN1CCC(C)(O)CC1 [Compound 36, 1-(4-(3-(2,6-dichlorophenyl)azetidin-1-yl)-2,6-dimethylbenzyl)-4-methylpiperidin-4-ol]	100 to 1000 nM
Cc1c(CCc2c(Cl)cccc2Cl)ccc2c1CCC2N1CC(C)(O)C1 (single isomer, unassigned) [Compound 18a, 1-[5-[2-(2,6-dichlorophenyl)ethyl]-4-methyl-indan-1-yl]-3-methyl-azetidin-3-ol]	1 to 10 nM
Cc1cc(-c2ccc(C3CC3)c(Cl)c2)c(C)c2c1C(N1CC(C)(O)C1)CC2 (single isomer, unassigned) [Compound 26b, 1-[5-(3-chloro-4-cyclopropyl-phenyl)-4,7-dimethyl-indan-1-yl]-3-methyl-azetidin-3-ol]	1 to 10 nM
CC1(O)CCN(C2CCc3cc(C4CN(c5c(Cl)cccc5Cl)C4)ccc32)CC1 (stereo not drawn) [Compound 8, 1-(5-(1-(2,6-dichlorophenyl)azetidin-3-yl)-2,3-dihydro-1H-inden-1-yl)-4-methyl-piperidin-4-ol]	1000 to 10000 nM
Cc1cc2c(cc1OCc1c(Cl)cccc1Cl)CCC2N1CC(C)(O)C1 (single isomer, unassigned) [Compound 24a, 1-[5-[(2,6-dichlorophenyl)methoxy]-6-methyl-indan-1-yl]-3-methyl-azetidin-3-ol]	1 to 10 nM
Cc1cc2c(c(C)c1-c1ccc(C3CC3)c(Cl)c1)CCC2N1CC(C)(O)C1 (single isomer, unassigned) [Compound 25a, 1-(5-(3-chloro-4-cyclopropylphenyl)-4,6-dimethyl-2,3-dihydro-1H-inden-1-yl)-3-methylazetidin-3-ol]	1 to 10 nM
CC1(O)CN(Cc2ccc(C3CN(c4c(Cl)cccc4Cl)C3)cc2C2CC2)C1 [Compound 50, 1-(2-cyclopropyl-4-(1-(2,6-dichlorophenyl)azetidin-3-yl)benzyl)-3-methylazetidin-3-ol]	10 to 100 nM
CC1(O)CN(Cc2ccc(N3CC(c4c(Cl)cccc4Cl)C3)cn2)C1 [Compound 66, 1-((5-(3-(2,6-dichlorophenyl)azetidin-1-yl)pyridin-2-yl)methyl)-3-methylazetidin-3-ol]	100 to 1000 nM
CC1(O)CN(C2CCc3cc(C#Cc4ccccc4F)ccc32)C1 (single isomer, unassigned) [Compound 1b, 1-[5-[2-(2-fluorophenyl)ethynyl]indan-1-yl]-3-methyl-azetidin-3-ol]	10 to 100 nM
Cc1cc(CCc2c(Cl)cccc2Cl)cc2c1C(N1CC(C)(O)C1)CC2 (single isomer, unassigned) [Compound 14b, 1-[5-[2-(2,6-dichlorophenyl)ethyl]-7-methyl-indan-1-yl]-3-methyl-azetidin-3-ol]	1 to 10 nM

From patent US20260022094A1, “Compounds for the Treatment of Neurodegenerative Diseases” (Celgene Corporation, priority 2022, published 2026)
